According to ChEMBL document CHEMBL1135031, “Sequestration of bacterial lipopolysaccharide by bis(Args) gemini compounds” (Bioorg Med Chem Lett, 2002):
In brackets after ≈: the same amount, converted by molar mass.

What was measured:
[1] = test system: J774.A1; test: Inhibition of TNF-a production by J774.A1 cells stimulated for 18 hr with Escherichia coli O111:B4 LPS (25 ng/mL); assay type: functional; conditions: Mus musculus, J774.A1, 18 h; read-out: ED50 (the source's name)
[2] = test system: Mus musculus; test: Tested for protective effect in D-galactosamine (800 mg/kg) sensitized mice injected with lipopolysaccharides at 0 ng/mouse and compound dose of 10 ug/mouse (ip); 0/5 (dead/ Total mice); assay type: functional
[3] = test system: Mus musculus; test: Tested for protective effect in D-galactosamine (800 mg/kg) sensitized mice injected with lipopolysaccharides at 0 ng/mouse and compound dose of 40 ug/mouse (ip); 0/5 (dead/ Total mice); assay type: functional
[4] = test system: Mus musculus; test: Tested for protective effect in D-galactosamine (800 mg/kg) sensitized mice injected with lipopolysaccharides at 20 ng/mouse and compound dose of 0 ug/mouse (ip); 5/5 (dead/ Total mice); assay type: functional
[5] = test system: Mus musculus; test: Tested for protective effect in D-galactosamine (800 mg/kg) sensitized mice injected with lipopolysaccharides at 20 ng/mouse and compound dose of 10 ug/mouse (ip); 7/10 (dead/ Total mice); assay type: functional
[6] = test system: Mus musculus; test: Tested for protective effect in D-galactosamine (800 mg/kg) sensitized mice injected with lipopolysaccharides at 20 ng/mouse and compound dose of 40 ug/mouse (ip); 0/10 (dead/ Total mice); assay type: functional
[7] = test system: Mus musculus; test: Tested for protective effect in D-galactosamine (800 mg/kg) sensitized mice injected with lipopolysaccharides at 40 ng/mouse and compound dose of 0 ug/mouse (ip); 5/5 (dead/ Total mice); assay type: functional
[8] = test system: Mus musculus; test: Tested for protective effect in D-galactosamine (800 mg/kg) sensitized mice injected with lipopolysaccharides at 40 ng/mouse and compound dose of 10 ug/mouse (ip); 9/10 (dead/ Total mice); assay type: functional
[9] = test system: Mus musculus; test: Tested for protective effect in D-galactosamine (800 mg/kg) sensitized mice injected with lipopolysaccharides at 40 ng/mouse and compound dose of 40 ug/mouse (ip); 6/10 (dead/ Total mice); assay type: functional
[10] = Dose that resulted in 100% lethality in murine model of CF-1 mice; assay type: ADME; conditions: mouse, in vivo

SMILES | EC50 [1] | Lethality [2] | Lethality [3] | Lethality [4] | Lethality [5] | Lethality [6] | Lethality [7] | Lethality [8] | Lethality [9] | Lethal dose [10]
CCCCCCCCCCCC(=O)N[C@@H](CCCN=C(N)N)C(=O)NCCCCCCCCCNC(=O)[C@H](CCCN=C(N)N)NC(=O)CCCCCCCCCCC | 2.5 µg/mL (≈ 2.99 µM) | 0 | 0 | 5 | 7 | 0 | 5 | 9 | 6 | 10 ng/mL
CCCCCCCCCCCC(=O)N[C@@H](CCCN=C(N)N)C(=O)NCCCCCCNC(=O)[C@H](CCCN=C(N)N)NC(=O)CCCCCCCCCCC | 1.4 µg/mL (≈ 1.77 µM) |  |  |  |  |  |  |  |  | 
